From ChEMBL document CHEMBL1148572, “1-((S)-2-aminopropyl)-1H-indazol-6-ol: a potent peripherally acting 5-HT2 receptor agonist with ocular hypotensive activity” (J Med Chem, 2006) come the findings set out here.

Broadly, the inhibition is the drop in the measured response relative to a control, in per cent. Usually EC50 stands for the midpoint of the concentration-response curve. Low readings indicate higher potency in that assay, high ones lower potency in that assay. The Ki is the dissociation constant of the complex between target and ligand, obtained from inhibition or displacement. Low readings indicate tighter binding, high ones weaker binding.

Data set [1] can be described thus: Inhibitory activity at TBOB site in GABA gated chloride channel at 1 nM.
Data set [2] has as its target 5-hydroxytryptamine receptor 7 (Homo sapiens, UniProt P34969). The data set is described as follows: Activity at 5HT7 receptor expressed in human corneal epithelial CEPI-17-CL4 cells by adenylyl cyclase assay. The data set is classed as functional, cell-based, Cornea.
For data set [3], the target named is Substance-P receptor (Homo sapiens) (UniProt P25103). The data set is described as follows: Inhibition of neurokinin 1 receptor at 10 uM.
Sequence of Substance-P receptor (Homo sapiens) (P25103 whole entry): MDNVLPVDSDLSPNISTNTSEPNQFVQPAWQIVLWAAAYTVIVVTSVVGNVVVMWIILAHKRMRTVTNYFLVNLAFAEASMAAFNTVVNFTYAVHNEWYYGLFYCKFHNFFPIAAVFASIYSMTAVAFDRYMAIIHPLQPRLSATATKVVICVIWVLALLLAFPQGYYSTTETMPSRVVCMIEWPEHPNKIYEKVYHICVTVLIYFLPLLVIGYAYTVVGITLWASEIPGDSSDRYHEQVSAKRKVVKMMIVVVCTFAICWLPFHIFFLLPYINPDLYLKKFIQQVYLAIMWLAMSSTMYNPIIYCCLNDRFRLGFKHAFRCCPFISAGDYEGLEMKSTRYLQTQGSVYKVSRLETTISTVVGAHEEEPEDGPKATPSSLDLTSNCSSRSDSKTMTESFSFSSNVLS
Data set [4] has as its target T1, Alpha-2A adrenergic receptor (Homo sapiens, UniProt P08913).
T1 sequence (P08913 whole entry): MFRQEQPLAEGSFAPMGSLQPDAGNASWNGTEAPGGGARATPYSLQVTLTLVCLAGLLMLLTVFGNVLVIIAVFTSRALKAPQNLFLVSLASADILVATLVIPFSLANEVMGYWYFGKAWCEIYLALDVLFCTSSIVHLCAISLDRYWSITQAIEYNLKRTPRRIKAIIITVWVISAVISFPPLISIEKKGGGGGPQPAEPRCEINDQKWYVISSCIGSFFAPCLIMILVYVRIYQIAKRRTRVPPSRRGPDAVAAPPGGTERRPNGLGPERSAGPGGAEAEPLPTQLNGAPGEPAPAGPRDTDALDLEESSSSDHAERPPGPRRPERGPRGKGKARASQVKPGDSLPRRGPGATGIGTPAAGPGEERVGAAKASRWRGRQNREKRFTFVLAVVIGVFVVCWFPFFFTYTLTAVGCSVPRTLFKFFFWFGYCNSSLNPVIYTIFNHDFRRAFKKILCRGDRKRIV
The data set is described as follows: Activity at adrenergic alpha2A receptor expressed in human clonic adenocarcinoma HT29 cell by […]. The data set is classed as functional, cell-based, HT-29.

A short description of data set [5]: Inhibition of non selective binding to VIP at 100 nM.
The nature of data set [6]: Inhibition of non selective binding to VIP at 10 uM.
In data set [7] the target is T2, Atrial natriuretic peptide receptor 1 (Homo sapiens) (UniProt P16066).
T2 sequence (whole entry): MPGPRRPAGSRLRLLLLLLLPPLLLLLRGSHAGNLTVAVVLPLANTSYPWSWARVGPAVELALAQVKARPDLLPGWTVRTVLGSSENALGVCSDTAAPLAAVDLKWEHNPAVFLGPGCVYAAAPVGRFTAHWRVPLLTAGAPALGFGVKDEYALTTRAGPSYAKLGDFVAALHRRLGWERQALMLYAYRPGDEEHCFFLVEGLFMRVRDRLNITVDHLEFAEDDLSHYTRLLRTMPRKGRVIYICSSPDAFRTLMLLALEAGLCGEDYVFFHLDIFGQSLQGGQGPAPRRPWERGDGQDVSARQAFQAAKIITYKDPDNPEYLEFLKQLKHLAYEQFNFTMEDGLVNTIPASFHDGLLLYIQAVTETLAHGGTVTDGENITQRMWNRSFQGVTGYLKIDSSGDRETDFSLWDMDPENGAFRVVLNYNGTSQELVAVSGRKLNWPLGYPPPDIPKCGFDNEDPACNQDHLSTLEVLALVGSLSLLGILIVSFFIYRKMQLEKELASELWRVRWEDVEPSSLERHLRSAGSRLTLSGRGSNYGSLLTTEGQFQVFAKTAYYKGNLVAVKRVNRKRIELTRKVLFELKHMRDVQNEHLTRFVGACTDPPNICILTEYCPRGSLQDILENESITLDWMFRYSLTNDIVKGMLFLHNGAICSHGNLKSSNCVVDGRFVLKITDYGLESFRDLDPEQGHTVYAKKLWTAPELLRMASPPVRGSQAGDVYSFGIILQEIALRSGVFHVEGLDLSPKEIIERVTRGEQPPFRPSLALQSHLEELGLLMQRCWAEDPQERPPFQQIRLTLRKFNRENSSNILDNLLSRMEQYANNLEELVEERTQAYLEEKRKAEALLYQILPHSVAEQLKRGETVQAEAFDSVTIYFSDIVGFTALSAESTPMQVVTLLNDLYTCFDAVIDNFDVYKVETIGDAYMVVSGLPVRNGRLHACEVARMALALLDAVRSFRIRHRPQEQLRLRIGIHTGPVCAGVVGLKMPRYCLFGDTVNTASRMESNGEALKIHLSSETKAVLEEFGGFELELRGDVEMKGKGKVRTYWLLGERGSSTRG
The data set is described as follows: Inhibition of ANP A at 1 nM.

For data set [8], the target named is Alpha-1A adrenergic receptor (Homo sapiens, UniProt P35348). The data set is described as follows: Inhibitory activity against adrenergic alpha-1A receptor.
Sequence of Alpha-1A adrenergic receptor (P35348 whole entry): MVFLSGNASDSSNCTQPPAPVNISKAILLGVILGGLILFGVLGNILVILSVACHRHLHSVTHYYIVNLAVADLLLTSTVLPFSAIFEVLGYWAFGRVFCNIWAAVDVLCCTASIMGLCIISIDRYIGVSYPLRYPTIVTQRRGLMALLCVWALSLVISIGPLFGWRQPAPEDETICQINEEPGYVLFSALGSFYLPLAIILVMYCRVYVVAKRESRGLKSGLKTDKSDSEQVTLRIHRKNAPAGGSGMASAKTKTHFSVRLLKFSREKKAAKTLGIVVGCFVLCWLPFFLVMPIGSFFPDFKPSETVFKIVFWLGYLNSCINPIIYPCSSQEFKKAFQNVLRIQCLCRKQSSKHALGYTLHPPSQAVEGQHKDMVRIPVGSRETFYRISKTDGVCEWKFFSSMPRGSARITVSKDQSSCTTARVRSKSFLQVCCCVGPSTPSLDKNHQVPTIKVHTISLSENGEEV
The target of data set [9] is T3, Endothelin-1 receptor (Homo sapiens) (UniProt P25101).
T3 sequence (whole entry): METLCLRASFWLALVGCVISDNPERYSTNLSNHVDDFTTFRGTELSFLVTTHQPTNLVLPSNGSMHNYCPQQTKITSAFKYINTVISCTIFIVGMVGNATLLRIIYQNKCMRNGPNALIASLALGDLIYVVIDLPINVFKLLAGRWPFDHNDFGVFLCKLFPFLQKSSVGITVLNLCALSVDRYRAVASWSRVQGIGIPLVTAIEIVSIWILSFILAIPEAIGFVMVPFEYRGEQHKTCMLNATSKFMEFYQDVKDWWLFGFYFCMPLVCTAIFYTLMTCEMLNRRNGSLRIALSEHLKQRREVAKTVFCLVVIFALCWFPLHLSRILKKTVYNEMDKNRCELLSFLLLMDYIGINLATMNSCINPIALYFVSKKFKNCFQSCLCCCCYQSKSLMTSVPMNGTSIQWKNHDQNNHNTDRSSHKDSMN
The data set is described as follows: Inhibition of human recombinant endothelin 1 receptor at 100 nM.

Data set [10] deals with T4, monoamine oxidase B (MAO-B) (Rattus norvegicus, UniProt P19643).
T4 sequence (P19643 whole entry): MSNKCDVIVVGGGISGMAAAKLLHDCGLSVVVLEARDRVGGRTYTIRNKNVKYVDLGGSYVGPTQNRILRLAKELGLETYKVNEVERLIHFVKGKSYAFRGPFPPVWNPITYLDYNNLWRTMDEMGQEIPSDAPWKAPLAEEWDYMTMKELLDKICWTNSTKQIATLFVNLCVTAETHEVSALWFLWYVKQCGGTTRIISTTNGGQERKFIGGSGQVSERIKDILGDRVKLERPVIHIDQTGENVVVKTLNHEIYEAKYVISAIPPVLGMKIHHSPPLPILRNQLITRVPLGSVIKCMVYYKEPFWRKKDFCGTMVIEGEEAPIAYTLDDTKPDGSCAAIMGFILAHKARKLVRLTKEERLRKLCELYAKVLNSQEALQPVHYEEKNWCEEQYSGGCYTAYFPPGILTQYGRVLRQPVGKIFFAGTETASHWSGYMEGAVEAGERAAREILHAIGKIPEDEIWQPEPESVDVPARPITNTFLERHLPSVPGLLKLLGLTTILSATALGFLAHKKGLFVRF
The data set is described as follows: Inhibition of monoamine oxidase B in rat brain at 100 nM. It counts as tissue-based.

The target of data set [11] is GABA-A receptor; benzodiazepine site (Homo sapiens) (UniProt P14867+P18507+P48169+Q99928+P34903+Q8N1C3+P47869+P31644+Q16445). The experiment in a line: Inhibition of central benzodiazepine site on GABAA receptor at 100 nM. It counts as protein-complex assay.
Data set [12] deals with Glutamate receptor ionotropic kainate (Homo sapiens) (UniProt P39086+Q16478+Q16099+Q13002+Q13003). The data set is described as follows: Inhibition of kainate receptor at 100 nM. It counts as protein-complex assay.

A value given as a limit tells only on which side of the number the result lay.

Sequence of 5-hydroxytryptamine receptor 7 (P34969 whole entry): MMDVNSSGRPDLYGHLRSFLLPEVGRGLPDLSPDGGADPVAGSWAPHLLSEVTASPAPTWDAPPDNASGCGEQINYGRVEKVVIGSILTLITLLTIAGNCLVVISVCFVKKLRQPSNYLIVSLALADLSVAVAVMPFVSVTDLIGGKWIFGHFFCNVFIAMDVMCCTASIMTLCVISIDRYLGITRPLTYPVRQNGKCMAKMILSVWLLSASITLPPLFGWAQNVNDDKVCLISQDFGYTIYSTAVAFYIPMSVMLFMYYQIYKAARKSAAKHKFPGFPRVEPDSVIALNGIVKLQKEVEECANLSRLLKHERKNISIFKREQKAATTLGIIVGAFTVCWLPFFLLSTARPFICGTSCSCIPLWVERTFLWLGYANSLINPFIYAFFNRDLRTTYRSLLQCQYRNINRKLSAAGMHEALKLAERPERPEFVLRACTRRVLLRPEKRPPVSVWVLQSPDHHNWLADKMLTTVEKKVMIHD

On to `C[C@H](N)Cn1ncc2ccc(O)cc21`, for which the inhibition in [1] is -3.75%; in data set [3], 33%; in data set [5], 5.41%; in data set [6] it was -5.59%; in [7], -5.65%; in data set [9] it was 2.04%. Moreover, the values for the inhibition in data set [11] and in data set [12] were 18.8% and 6.16%, respectively. Also, the EC50 in data set [2] is 5.6 µM; in [4], 2600 nM. The Ki in data set [8] was more than 30 µM. Further, the inhibition at 0.1 µM in [10] is -20%.
